{
  "source": "patent US7745465B2",
  "about": "“Method of enhancing cellular production of molecular chaperone, hydroxylamine derivatives useful for enhancing the chaperone production and the preparation thereof” (CytRx Corporation, priority 1995, dated 2010)",
  "key": {"[1]": {"tested_on": "H9c2 rat heart muscle cell", "assay": "Serum deprivation, cell viability by MTT test (H9c2)", "type": "cell-based", "settings": "serum deprived H9c2, 10^−5 M, control 100%, serum deprived alone 50.5%, read-out: relative cell viability", "description": "(§1) Experiments were carried out using WEH1 mouse fibrosarcoma and H9c2 rat heart muscle cell lines divided into three groups: • control (10% FCS fetal calf serum) • serum deprived • N-[2-hydroxy-3-(1-piperidinyl)propoxy]-3-pyridinecarboximidoyl chloride maleate (10^−5 M) treated and serum deprived 1.2(i) Serum Deprivation and MTT Test\n(§2) We have screened various cell lines, drug concentrations, pretreatment and deprivation times and we have found the most appropriate conditions as follows: […] H9c2 rat heart muscle cell (n=6) and WEHI mouse fibrosarcoma cell (n=7) have been plated on 24 well plates in 10% FCS DMEM (Dulbecco modified Eagle's medium) and incubated for 2 hours at 37 C, 5% CO2. Medium has been discarded and replaced by 10% FCS DMEM containing 10^−5 M N-[2-hydroxy-3-(1-piperidinyl)propoxy ]-3-pyridinecarboximidoyl chloride maleate. […] Cell viability was measured by MTT test based on the method of Plumb et al. (Cancer Res. 49: 4435-4444 (1989)) The tetrazolium salt method involving conversion of MTT (3-(4,5-dimethylthiazol-2yl)-2,5-diphenyltetrazolium bromide) to colored formazan by alive cells, served as an indirect measurement of cell viability. […] O.D. of the plates was read at 570 nm on an ELISA plate reader (Labsystems Multiskan Biochromatic type:348). […] Relative cell viability was calculated defining control group as 100%."}, "[2]": {"tested_on": "Hsp60", "assay": "Western blot of hsp60 in heat shocked H9c2 cells", "type": "cell-based, rat", "description": "Experiments set forth in this section were conducted to determine whether N-[2-hydroxy-3-(1-piperidinyl)propoxy]-3-pyridinecarboximidoyl chloride maleate acts to increase the expression of molecular chaperon by a cell. The accumulation of different heat shock proteins subsequent to a period of exposure to heat shock alone, and to heat shock in combination with N-[2-hydroxy-3-(1-piperidinyl)propoxy]-3-pyridinecarboximidoyl chloride maleate administration, was examined by adding 10^−5 M of N-[2-hydroxy-3-(1-piperidinyl)propoxy]-3-pyridinecarboximidoyl chloride maleate before, during, or immediately after hyperthermic treatment of heart myogenic cells (H9c2 cells).\nThe embryonic rat heart-derived cell line H9c2 was obtained from European Collection of Animal cell Cultures (ECACC) (88092904). The cells were maintained at 37° C. in Dulbecco's modified Eagle's medium (DMEM) supplemented with 10% fetal calf serum (GIBCO) in JOUAN C02 thermostat (5% CO2).\nHeat shock was performed at 43° C. in CO2 thermostat for the given time intervals (20, 40, 60, 90 and 120 min.). Cells were then taken back to 37° C. for 6 hours and proteins were extracted for SDS-PAGE. When N-[2-hydroxy-3-(1-piperidinyl)propoxy ]-3-pyridinecarboximidoyl chloride maleate was added before heat shock. 10^−5 M N-[2-hydroxy-3-(1-piperidinyl)propoxy]-3-pyridinecarboximidoyl chloride maleate was administered for 16 hours before the stress. In other set of experiments, N-[2-hydroxy-3-(1-piperidinyl)propoxy]-3-pyridinecarboximidoyl chloride maleate was added in 10^−5 M concentration right after heat stress, during the 6 hours recovery period. The experiments were repeated three times.\nFor SDS-P AGE, cells were grown in 6 cm Petri dishes. The amount of the cells at the start of the experiment was 8×10^5 and were still suconfluent when proteins were extracted. After the 6 hours recovery cells were washed two times in PBS then scrapped from the surface of the dishes in PBS. […]\nProtein concentration was determined from 5:1 samples by the Bradford assay (M. M. Braford, Anal. Biochem., 72: 248-254 (1976)) in three parallel. […]"}, "[3]": {"tested_on": "WEHI mouse fibrosarcoma cell", "assay": "Serum deprivation, cell viability by MTT test (WEHI)", "type": "cell-based", "settings": "serum deprived WEHI, 10^−5 M, control 100%, serum deprived alone 74.8%, read-out: relative cell viability", "description": "as §1, §2"}, "[4]": {"tested_on": "Hsp72", "assay": "Heat stress induced hsp72 expression in rat testicular explant", "type": "cell-based", "settings": "10^−5 M, 15 min. before 43° C. 30 min.", "description": "Testis of CFY rats weighing of 200 g were removed in sterile conditions and the released testicular tubuli were suspended in 10% fetal bovine serum containing MEM culture medium in that way that five ml suspension contained 50-100 mg tissue. The explants were incubated in 5% CO2 containing humidified air at 37° C. for one hour, then the cultures were treated with 10^−5 M concentration of the tested compounds. After a further incubation for 15 min. at 37° C., explants were exposed to heat shock at 43° C. for 30 min. The amount of the induced hsp72 was measured after a further 6 hours incubation at 37° C."}},
  "data": [
    {"smiles": "O=C(O)/C=C\\C(=O)O.OC(CON=C(Cl)c1cccnc1)CN1CCCCC1", "note": "(stereo not drawn) [N-[2-hydroxy-3-(1-piperidinyl)-propoxy]3-pyridinecarboximidoyl chloride maleate]", "values": [
      {"measurement": "viability at 10 µM", "setting": "[1]", "value": 82.8, "unit": "%"},
      {"measurement": "amount of hsp60 increased (compared to 37° C. control)", "setting": "[2]; 10^−5 M added 16 hours before heat stress, 20 min. heat treatment at 43° C.", "value": "about fivefold"},
      {"measurement": "effect on the level of hsp60", "setting": "[2]; added during the recovery phase", "value": "also effective though to a significantly lesser extent"},
      {"measurement": "effect on the level of hsp60", "setting": "[2]; treatment at 37° C., no heat shock", "value": "no measurable effect"},
      {"measurement": "viability at 10 µM", "setting": "[3]", "value": 93, "unit": "%"},
      {"measurement": "Level of hsp72 relative to the stress exposed control", "setting": "[4]", "value": "+ + +"}
    ]}
  ]
}
